Reference: patent US6660742B2, “Compositions and methods of the use thereof achiral analogues of CC-1065 and the duocarmycins” (priority 2000, dated 2003)
Several values for one entry are separate records, joined by “and”; a condition that tells them apart may be missing. Identical values can stand only once. Like-named read-outs stand apart in the source and are kept apart here.

Experiments:
[1] = tested on: panel of 60 human cancer cell lines; assay: NCI in-vitro cytotoxicity screen, whole panel; format: cell-based
SR = assay: NCI screen, SR (Leukemia)
Description: (§1) The compounds of this invention were also tested against the panel of 60 human cancer cell lines at the National Cancer Institute, Bethesda, Md. […] The cytrotoxicity studies were conducted using a 48 hour exposure, and measuring the optical density of sulforhodamide B-derived color.

K-562 = assay: NCI screen, K-562 (Leukemia)
Description: as §1

SF-295 = assay: NCI screen, SF-295 (CNS Cancer)
Description: as §1

SNB-19 = assay: NCI screen, SNB-19 (CNS Cancer)
Description: as §1

SNB-75 = assay: NCI screen, SNB-75 (CNS Cancer)
Description: as §1

SK-MEL-2 = assay: NCI screen, SK-MEL-2 (Melanoma)
Description: as §1

SK-MEL-28 = assay: NCI screen, SK-MEL-28 (Melanoma)
Description: as §1

786-0 = assay: NCI screen, 786-0 (Renal Cancer)
Description: as §1

SN12C = assay: NCI screen, SN12C (Renal Cancer)
Description: as §1

UO-31 = assay: NCI screen, UO-31 (Renal Cancer)
Description: as §1

MCF7 = assay: NCI screen, MCF7 (Breast Cancer)
Description: as §1

MDA-N = assay: NCI screen, MDA-N (Breast Cancer)
Description: as §1

HCT-116 = assay: NCI screen, HCT-116 (Colon Cancer)
Description: as §1

RXF 393 = assay: NCI screen, RXF 393 (Renal Cancer)
Description: as §1

HCC-2998 = assay: NCI screen, HCC-2998 (Colon Cancer)
Description: as §1

PC-3 = assay: NCI screen, PC-3 (Prostrate Cancer)
Description: as §1

SK-OV-3 = assay: NCI screen, SK-OV-3 (Ovarian Cancer)
Description: as §1

HOP-62 = assay: NCI screen, HOP-62 (Non-Small Cell Lung Cancer)
Description: as §1

NCI-H522 = assay: NCI screen, NCI-H522 (Non-Small Cell Lung Cancer)
Description: as §1

O=C(Nc1cc(O)ccc1CCCl)c1cc2cc(NC(=O)c3cc4ccccc4o3)ccc2[nH]1 [Compound 1, 4-(2-Chloroethyl)-3-[5-(5-benzofuran-2-carboxamido)indole-2-carboxamido]phenol]
range of activity ([1]; 48 hour exposure): micromolar range | activity against leukemia cells ([1]; leukemia cells): none of these compounds showed much activity | activity against melanoma cells ([1]; melanoma cells): active | activity against solid tumors cells ([1]; solid tumors cells): strong activity | GI50 (HOP-92): 2620 nM | TGI (HOP-92): 5.53E−06 Molar | Percent Growth (HOP-92; Log10 Concentration −4.0): −92% | Percent Growth (HOP-92; Log10 Concentration −8.0): 94% | GI50 (HCT-15): 1910 nM | Percent Growth (HCT-15): −91% | TGI (HCT-15): 4.89E−06 Molar | GI50 (KM12): 18800 nM | Percent Growth (KM12): 93% | TGI (KM12): 3.50E−05 Molar | GI50 (SR): 852 nM | TGI (SR): 8.12E−06 Molar | Percent Growth (SR; Log10 Concentration −4.0): −7% | GI50 (K-562): 2880 nM | TGI (K-562): 9.59E−06 Molar | Percent Growth (K-562; Log10 Concentration −4.0): −5% | Percent Growth (SF-295): 92% and 94% | GI50 (SF-295; SF-295): 2320 nM | TGI (SF-295; SF-295): 6.46E−06 Molar | Percent Growth (SF-295; SF-295, Log10 Concentration −4.0): −96% | Percent Growth (SF-295; SF-295, Log10 Concentration −5.0): −21% | Percent Growth (SF-295; SF-295, Log10 Concentration −6.0): 91% | GI50 (SNB-19): 3530 nM | TGI (SNB-19): 1.38E−05 Molar | Percent Growth (SNB-19; Log10 Concentration −4.0): −75% | Percent Growth (SNB-75): 65% and 56% and 93% | GI50 (SNB-75; SNB-75): 18600 nM | TGI (SNB-75; SNB-75): 3.32E−05 Molar | Percent Growth (SNB-75; SNB-75, Log10 Concentration −4.0): −96% | GI50 (SK-MEL-2): 1320 nM | TGI (SK-MEL-2): 2.67E−06 Molar | Percent Growth (SK-MEL-2; Log10 Concentration −4.0): −91% | Percent Growth (SK-MEL-2; Log10 Concentration −7.0): 101% | GI50 (SK-MEL-28): 2400 nM | TGI (SK-MEL-28): 6.10E−06 Molar | Percent Growth (SK-MEL-28; Log10 Concentration −4.0): −98% | Percent Growth (SK-MEL-28; Log10 Concentration −6.0): 97% | Percent Growth (SK-MEL-28; Log10 Concentration −8.0): 103% | GI50 (786-0): 2620 nM | TGI (786-0): 1.07E−05 Molar | Percent Growth (786-0; Log10 Concentration −4.0): −50% | Percent Growth (786-0; Log10 Concentration −5.0): 2% | Percent Growth (786-0; Log10 Concentration −6.0): 85% | Percent Growth (786-0; Log10 Concentration −7.0): 101% | Percent Growth (786-0; Log10 Concentration −8.0): 98% | GI50 (SN12C): 3100 nM | TGI (SN12C): 9.41E−06 Molar | Percent Growth (SN12C; Log10 Concentration −4.0): −77% | Percent Growth (SN12C; Log10 Concentration −5.0): −3% | Percent Growth (SN12C; Log10 Concentration −7.0): 102% | Percent Growth (UO-31): 123% | GI50 (UO-31; UO-31): 3000 nM | TGI (UO-31; UO-31): 6.38E−06 Molar | Percent Growth (UO-31; UO-31, Log10 Concentration −4.0): −97% | Percent Growth (UO-31; UO-31, Log10 Concentration −5.0): −30% | Percent Growth (UO-31; UO-31, Log10 Concentration −7.0): 102% | Percent Growth (UO-31; UO-31, Log10 Concentration −8.0): 105% | GI50 (MCF7): 1030 nM | TGI (MCF7): 2.27E−06 Molar | Percent Growth (MCF7; Log10 Concentration −4.0): −100% | Percent Growth (MCF7; Log10 Concentration −8.0): 111% | Percent Growth (MDA-N): −35% | GI50 (MDA-N; MDA-N): 2280 nM | TGI (MDA-N; MDA-N): 5.47E−06 Molar | Percent Growth (MDA-N; MDA-N, Log10 Concentration −4.0): −87% | Percent Growth (MDA-N; MDA-N, Log10 Concentration −6.0): 97% | Percent Growth (MDA-N; MDA-N, Log10 Concentration −7.0): 103% | Percent Growth (MDA-N; MDA-N, Log10 Concentration −8.0): 100% | Percent Growth (HCT-116): 81% and 99% | GI50 (HCT-116; HCT-116): 1940 nM | TGI (HCT-116; HCT-116): 5.73E−06 Molar | Percent Growth (HCT-116; HCT-116, Log10 Concentration −4.0): −89% | Percent Growth (HCT-116; HCT-116, Log10 Concentration −5.0): −26% | Percent Growth (HCT-116; HCT-116, Log10 Concentration −7.0): 95% | GI50 (RXF 393): 982 nM | TGI (RXF 393): 2.18E−06 Molar | Percent Growth (RXF 393; Log10 Concentration −4.0): −94% | Percent Growth (RXF 393; Log10 Concentration −5.0): −97% | Percent Growth (RXF 393; Log10 Concentration −6.0): 50% | Percent Growth (RXF 393; Log10 Concentration −7.0): 74% | Percent Growth (RXF 393; Log10 Concentration −8.0): 104% | GI50 (HCC-2998): 1760 nM | TGI (HCC-2998): 3.56E−06 Molar | Percent Growth (HCC-2998; Log10 Concentration −4.0): −97% | Percent Growth (HCC-2998; Log10 Concentration −7.0): 97% | Percent Growth (HCC-2998; Log10 Concentration −8.0): 96% | GI50 (PC-3): 969 nM | TGI (PC-3): 3.99E−06 Molar | Percent Growth (PC-3; Log10 Concentration −4.0): −99% | Percent Growth (PC-3; Log10 Concentration −7.0): 98% | Percent Growth (PC-3; Log10 Concentration −8.0): 96% | GI50 (SK-OV-3): 2930 nM | TGI (SK-OV-3): 7.64E−06 Molar | Percent Growth (SK-OV-3; Log10 Concentration −4.0): −99% | Percent Growth (SK-OV-3; Log10 Concentration −7.0): 102% | GI50 (HOP-62): 453 nM | TGI (HOP-62): 3.07E−06 Molar | Percent Growth (HOP-62; Log10 Concentration −4.0): −98% | GI50 (NCI-H522): 933 nM | TGI (NCI-H522): 3.00E−06 Molar | Percent Growth (NCI-H522; Log10 Concentration −4.0): −80% | Percent Growth (NCI-H522; Log10 Concentration −7.0): 99% | Percent Growth (NCI-H522; Log10 Concentration −8.0): 98%
